Results from US7615569B2, “Inhibitors of ion channels” (Icagen, Inc., priority 2005, dated 2009).

biological target: T1, hSCN3A (Homo sapiens, UniProt Q9NY46); assay: SCN3A inhibitory activity in HEK cells stably expressing hSCN3A (whole-cell patch clamp / radiotracer efflux HTS); assay type: cell-based; conditions: HEK cells stably transfected with hSCN3A
T1 construct: expressed in transfected cells
T1 sequence (Q9NY46 whole entry): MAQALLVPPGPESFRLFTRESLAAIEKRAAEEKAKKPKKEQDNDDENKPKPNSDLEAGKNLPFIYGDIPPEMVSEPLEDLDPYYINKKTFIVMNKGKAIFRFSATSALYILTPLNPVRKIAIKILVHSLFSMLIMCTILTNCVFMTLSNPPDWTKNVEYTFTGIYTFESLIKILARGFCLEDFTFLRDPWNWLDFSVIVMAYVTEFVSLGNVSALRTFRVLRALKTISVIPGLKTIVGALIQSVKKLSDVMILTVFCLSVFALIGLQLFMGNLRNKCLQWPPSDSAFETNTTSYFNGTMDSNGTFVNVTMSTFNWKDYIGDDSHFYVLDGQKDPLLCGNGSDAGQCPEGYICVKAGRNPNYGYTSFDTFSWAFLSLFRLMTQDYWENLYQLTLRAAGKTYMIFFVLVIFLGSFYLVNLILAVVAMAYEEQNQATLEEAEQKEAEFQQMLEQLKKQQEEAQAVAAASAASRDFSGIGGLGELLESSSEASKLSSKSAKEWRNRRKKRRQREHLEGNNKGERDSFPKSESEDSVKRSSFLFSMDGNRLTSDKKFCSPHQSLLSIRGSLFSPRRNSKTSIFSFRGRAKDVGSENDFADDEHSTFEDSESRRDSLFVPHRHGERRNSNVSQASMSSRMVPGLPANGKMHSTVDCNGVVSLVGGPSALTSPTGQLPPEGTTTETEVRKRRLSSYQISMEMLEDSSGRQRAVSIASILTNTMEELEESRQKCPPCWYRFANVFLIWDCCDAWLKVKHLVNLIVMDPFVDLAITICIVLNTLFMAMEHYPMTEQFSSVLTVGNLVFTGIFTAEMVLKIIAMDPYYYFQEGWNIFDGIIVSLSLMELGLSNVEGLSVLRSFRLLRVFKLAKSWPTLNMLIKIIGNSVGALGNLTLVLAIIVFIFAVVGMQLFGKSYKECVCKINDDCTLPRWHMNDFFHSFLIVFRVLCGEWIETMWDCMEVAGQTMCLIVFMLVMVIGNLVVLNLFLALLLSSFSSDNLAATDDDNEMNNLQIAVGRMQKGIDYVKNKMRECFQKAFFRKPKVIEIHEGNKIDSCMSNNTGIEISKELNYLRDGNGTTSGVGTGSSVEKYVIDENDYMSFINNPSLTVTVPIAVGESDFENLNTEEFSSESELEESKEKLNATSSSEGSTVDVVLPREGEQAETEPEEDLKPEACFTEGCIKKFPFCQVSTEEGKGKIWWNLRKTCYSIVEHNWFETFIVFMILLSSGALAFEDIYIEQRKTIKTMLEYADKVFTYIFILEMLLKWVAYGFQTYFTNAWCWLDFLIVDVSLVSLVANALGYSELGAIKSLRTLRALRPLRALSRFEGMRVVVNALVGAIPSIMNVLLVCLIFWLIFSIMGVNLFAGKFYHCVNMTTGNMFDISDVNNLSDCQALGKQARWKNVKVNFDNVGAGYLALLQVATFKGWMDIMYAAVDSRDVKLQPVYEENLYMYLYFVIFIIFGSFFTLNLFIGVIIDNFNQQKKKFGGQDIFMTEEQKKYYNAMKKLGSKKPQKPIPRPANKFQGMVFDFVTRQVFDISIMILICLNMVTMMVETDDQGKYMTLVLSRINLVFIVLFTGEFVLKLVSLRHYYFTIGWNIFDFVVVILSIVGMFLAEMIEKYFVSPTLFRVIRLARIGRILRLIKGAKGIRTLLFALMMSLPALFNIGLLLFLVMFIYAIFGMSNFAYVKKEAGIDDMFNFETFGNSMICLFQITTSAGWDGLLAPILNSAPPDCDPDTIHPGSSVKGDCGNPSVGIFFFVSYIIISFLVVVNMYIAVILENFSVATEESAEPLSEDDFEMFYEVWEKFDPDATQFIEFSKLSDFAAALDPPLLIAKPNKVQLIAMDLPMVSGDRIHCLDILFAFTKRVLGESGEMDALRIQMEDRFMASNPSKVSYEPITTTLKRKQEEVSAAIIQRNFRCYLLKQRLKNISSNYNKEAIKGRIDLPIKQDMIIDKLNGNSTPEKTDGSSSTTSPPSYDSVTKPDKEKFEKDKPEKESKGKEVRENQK

IC50	SMILES
> 1000 nM	O=S(=O)(Nc1nccs1)c1ccc(-c2nc(C3(c4ccccc4)CC3)c[nH]2)cc1 [Compound 41, 4-[4-(1-Phenyl-cyclopropyl)-1H-imidazol-2-yl]-N-thiazol-2-yl-benzenesulfonamide]
< 100 nM	O=S(=O)(Nc1nccs1)c1ccc(-c2nc(Cc3cccc(Cl)c3)c[nH]2)cc1 [Compound 16, 4-[4-(3-Chloro-benzyl)-1H-imidazol-2-yl]-N-thiazol-2-yl-benzenesulfonamide]
100 to 500 nM	Cc1ccc(C2(c3c[nH]c(-c4ccc(S(=O)(=O)Nc5nccs5)cc4)n3)CCCCC2)cc1 [Compound 21, N-Thiazol-2-yl-4-[4-(1-p-tolyl-cyclohexyl)-1H-imidazol-2-yl]-benzenesulfonamide]
< 100 nM	O=S(=O)(Nc1nccs1)c1ccc(-c2nc(C3CCC(c4ccc(Cl)cc4)CC3)c[nH]2)cc1 (centres unmarked) [Compound 12, 4-{4-[4-(4-Chloro-phenyl)-cyclohexyl]-1H-imidazol-2-yl}-N-thiazol-2-yl-benzenesulfonamide]
100 to 500 nM	O=S(=O)(Nc1nccs1)c1ccc(-c2nc(C(c3ccccc3)C3CCCCC3)c[nH]2)cc1 (centres unmarked) [Compound 47, 4-[4-(Cyclohexyl-phenyl-methyl)-1H-imidazol-2-yl]-N-thiazol-2-yl-benzenesulfonamide]
100 to 500 nM	O=S(=O)(Nc1nccs1)c1ccc(-c2nc(Cc3ccc(C(F)(F)F)cc3)c[nH]2)cc1 [Compound 34, N-Thiazol-2-yl-4-[4-(4-trifluoromethyl-benzyl)-1H-imidazol-2-yl]-benzenesulfonamide]
500 to 1000 nM	COc1ccc(C2(c3c[nH]c(-c4ccc(S(=O)(=O)Nc5nccs5)cc4)n3)CC2)cc1 [Compound 44, 4-{4-[1-(4-Methoxy-phenyl)-cyclopropyl]-1H-imidazol-2-yl}-N-thiazol-2-yl-benzenesulfonamide]
< 100 nM	O=S(=O)(Nc1nccs1)c1ccc(-c2nc(Cc3ccc(Cl)c(Cl)c3)c[nH]2)cc1 [Compound 36, 4-[4-(3,4-Dichloro-benzyl)-1H-imidazol-2-yl]-N-thiazol-2-yl-benzenesulfonamide]
100 to 500 nM	Cc1cccc(Cc2c[nH]c(-c3ccc(S(=O)(=O)Nc4nccs4)cc3)n2)c1 [Compound 27, 4-[4-(3-Methyl-benzyl)-1H-imidazol-2-yl]-N-thiazol-2-yl-benzenesulfonamide]
500 to 1000 nM	O=S(=O)(Nc1nccs1)c1ccc(-c2nc(Cc3ccccc3F)c[nH]2)cc1 [Compound 35, 4-[4-(2-Fluoro-benzyl)-1H-imidazol-2-yl]-N-thiazol-2-yl-benzenesulfonamide]
100 to 500 nM	O=S(=O)(Nc1nccs1)c1ccc(-c2nc(CCc3cccc(Cl)c3)c[nH]2)cc1 [Compound 28, 4-{4-[2-(3-Chloro-phenyl)-ethyl]-1H-imidazol-2-yl}-N-thiazol-2-yl-benzenesulfonamide]
500 to 1000 nM	O=S(=O)(Nc1nccs1)c1ccc(-c2nc(CCCOc3ccc(Cl)cc3)c[nH]2)cc1 [Compound 9, 4-{4-[3-(4-Chloro-phenoxy)-propyl]-1H-imidazol-2-yl}-N-thiazol-2-yl-benzenesulfonamide]
500 to 1000 nM	Cc1ccccc1CCc1c[nH]c(-c2ccc(S(=O)(=O)Nc3nccs3)cc2)n1 [Compound 33, N-Thiazol-2-yl-4-[4-(2-o-tolyl-ethyl)-1H-imidazol-2-yl]-benzenesulfonamide]
100 to 500 nM	O=S(=O)(Nc1nccs1)c1ccc(-c2nc(Cc3ccc(F)c(F)c3)c[nH]2)cc1 [Compound 23, 4-[4-(3,4-Difluoro-benzyl)-1H-imidazol-2-yl]-N-thiazol-2-yl-benzenesulfonamide]

The next lines start with the molecule.

SMILES	IC50
Cc1nc(-c2ccc(S(=O)(=O)Nc3nccs3)cc2)[nH]c1-c1ccccc1 [Compound 4, 4-(4-Methyl-5-phenyl-1H-imidazol-2-yl)-N-thiazol-2-yl-benzenesulfonamide]	500 to 1000 nM
O=S(=O)(Nc1nccs1)c1ccc(-c2nc(CCc3cc(Cl)cc(Cl)c3)c[nH]2)cc1 [Compound 26, 4-{4-[2-(3,5-Dichloro-phenyl)-ethyl]-1H-imidazol-2-yl}-N-thiazol-2-yl-benzenesulfonamide]	< 100 nM
O=S(=O)(Nc1nccs1)c1ccc(-c2nc(COc3c(Cl)cccc3Cl)n[nH]2)cc1F [Compound 115, 4-[5-(2,6-Dichloro-phenoxymethyl)-2H-[1,2,4]triazol-3-yl]-2-fluoro-n-thiazol-2-yl-benzenesulfonamide]	100 to 500 nM
CC1(Cc2ccc(Cl)c(Cl)c2)N=C(c2ccc(S(=O)(=O)Nc3nccs3)cc2)NC1=O (centres unmarked) [Compound 107, 4-[4-(3,4-Dichloro-benzyl)-4-methyl-5-oxo-4,5-dihydro-1H-imidazol-2-yl]-N-thiazol-2-yl-benzenesulfonamide]	> 1000 nM
O=S(=O)(Nc1nccs1)c1ccc(-c2nc(CCc3cc(C(F)(F)F)ccc3C(F)(F)F)c[nH]2)cc1 [Compound 22, 4-{4-[2-(2,5-Bis-trifluoromethyl-phenyl)-ethyl]-1H-imidazol-2-yl}-N-thiazol-2-yl-benzenesulfonamide]	100 to 500 nM
O=S(=O)(Nc1nccs1)c1ccc(-c2nnc(Cc3ccc(Cl)c(Cl)c3)[nH]2)cc1 [Compound 95, 4-[5-(3,4-Dichloro-benzyl)-4H-[1,2,4]triazol-3-yl]-N-thiazol-2-yl-benzenesulfonamide]	< 100 nM
O=S(=O)(Nc1nccs1)c1ccc(-c2nc3ccccc3[nH]2)cc1 [Compound 10, 4-(1H-Benzoimidazol-2-yl)-N-thiazol-2-yl-benzenesulfonamide]	> 1000 nM
COCn1c(Cc2ccc(Cl)c(Cl)c2)nnc1-c1ccc(S(=O)(=O)Nc2nccs2)cc1 [Compound 97, 4-[5-(3,4-Dichloro-benzyl)-4-methoxymethyl-4H-[1,2,4]triazol-3-yl]-N-thiazol-2-yl-benzenesulfonamide]	500 to 1000 nM
O=S(=O)(Nc1nccs1)c1ccc(-c2nc(Cc3ccccc3C(F)(F)F)c[nH]2)cc1 [Compound 51, N-Thiazol-2-yl-4-[4-(2-trifluoromethyl-benzyl)-1H-imidazol-2-yl]-benzenesulfonamide]	100 to 500 nM
O=S(=O)(Nc1nccs1)c1ccc(-c2nc(COc3ncc(C(F)(F)F)cc3Cl)n[nH]2)cc1 [Compound 117, 4-[5-(3-Chloro-5-trifluoromethyl-pyridin-2-yloxymethyl)-2H-[1,2,4]triazol-3-yl]-n-thiazol-2-yl-benzenesulfonamide]	500 to 1000 nM
O=S(=O)(Nc1nccs1)c1ccc(-c2nc(CCc3cc(Cl)cc(Cl)c3)c(I)[nH]2)cc1 [Compound 68, 4-{4-[2-(3,5-Dichloro-phenyl)-ethyl]-5-iodo-1H-imidazol-2-yl}-N-thiazol-2-yl-benzenesulfonamide]	< 100 nM
O=S(=O)(Nc1nccs1)c1ccc(-c2nc(CCc3ccc(C(F)(F)F)cc3)c[nH]2)cc1 [Compound 19, N-Thiazol-2-yl-4-{4-[2-(4-trifluoromethyl-phenyl)-ethyl]-1H-imidazol-2-yl}-benzenesulfonamide]	100 to 500 nM
O=S(=O)(Nc1nccs1)c1ccc(-c2ncc(Cc3cc(F)cc(F)c3)[nH]2)cc1 [Compound 7, 4-[5-(3,5-Difluoro-benzyl)-1H-imidazol-2-yl]-N-thiazol-2-yl-benzenesulfonamide]	100 to 500 nM
O=S(=O)(Cc1ncc(Cl)s1)c1ccc(-c2nc(CCc3cc(Cl)cc(Cl)c3)c[nH]2)cc1 [Compound 122, 5-Chloro-2-(4-{4-[2-(3,5-dichloro-phenyl)-ethyl]-1H-imidazol-2-yl}-benzenesulfonylmethyl)-thiazole]	< 100 nM
O=S(=O)(Nc1nccs1)c1ccc(-c2ncc(C(c3ccccc3)c3ccccc3)[nH]2)cc1 [Compound 6, 4-(5-Benzhydryl-1H-imidazol-2-yl)-N-thiazol-2-yl-benzenesulfonamide]	100 to 500 nM
O=S(=O)(Nc1nccs1)c1ccc(-c2cc(CCCOc3ccc(Cl)cc3Cl)[nH]n2)cc1 [Compound 123, 4-{5-[3-(2,4-Dichloro-phenoxy)-propyl]-1H-pyrazol-3-yl}-N-thiazol-2-yl-benzenesulfonamide]	100 to 500 nM
O=S(=O)(Nc1nccs1)c1ccc(-c2nc(Cc3cccc(OC(F)(F)F)c3)c[nH]2)cc1 [Compound 43, N-Thiazol-2-yl-4-[4-(3-trifluoromethoxy-benzyl)-1H-imidazol-2-yl]-benzenesulfonamide]	500 to 1000 nM
O=S(=O)(Nc1nccs1)c1ccc(-c2nc(Cc3ccc4c(c3)OCO4)c[nH]2)cc1 [Compound 49, 4-(4-Benzo[1,3]dioxol-5-ylmethyl-1H-imidazol-2-yl)-N-thiazol-2-yl-benzenesulfonamide]	500 to 1000 nM
O=S(=O)(Nc1nccs1)c1ccc(-c2nc(Cc3ccc(Cl)cc3)n[nH]2)cc1F [Compound 114, 4-[5-(4-Chloro-benzyl)-2H-[1,2,4]triazol-3-yl]-2-fluoro-n-thiazol-2-yl-benzenesulfonamide]	< 100 nM
CC1(c2ccc(S(=O)(=O)Nc3nccs3)cc2)NC(=O)N(Cc2ccc(Cl)c(Cl)c2)C1=O (centres unmarked) [Compound 100, 4-[1-(3,4-Dichloro-benzyl)-4-methyl-2,5-dioxo-imidazolidin-4-yl]-N-thiazol-2-yl-benzenesulfonamide]	> 1000 nM
O=S(=O)(Nc1nccs1)c1ccc(-c2nc(-c3ncc(C(F)(F)F)cc3Cl)n[nH]2)cc1F [Compound 116, 4-[5-(3-Chloro-5-trifluoromethyl-pyridin-2-yl)-2H-[1,2,4]triazol-3-yl]-2-fluoro-n-thiazol-2-yl-benzenesulfonamide]	100 to 500 nM
O=S(=O)(NCc1nccs1)c1ccc(-c2nc(Cc3cc(F)cc(F)c3)c[nH]2)cc1 [Compound 98, 4-[4-(3,5-Difluoro-benzyl)-1H-imidazol-2-yl]-N-thiazol-2-ylmethyl-benzenesulfonamide]	> 1000 nM
CC1(c2ccc(S(=O)(=O)Nc3nccs3)cc2)C(=O)NC(=O)N1Cc1ccc(Cl)c(Cl)c1 (centres unmarked) [Compound 99, 4-[3-(3,4-Dichloro-benzyl)-4-methyl-2,5-dioxo-imidazolidin-4-yl]-N-thiazol-2-yl-benzenesulfonamide]	> 1000 nM
COc1ccc(CCc2c[nH]c(-c3ccc(S(=O)(=O)Nc4nccs4)cc3)n2)cc1Cl [Compound 18, 4-{4-[2-(3-Chloro-4-methoxy-phenyl)-ethyl]-1H-imidazol-2-yl}-N-thiazol-2-yl-benzenesulfonamide]	100 to 500 nM
